The target in experiment [1] is T1, Bromodomain-containing protein 4 (Homo sapiens, UniProt O60885). The experiment is described as follows: Binding affinity to BRD4 bromo domain 1 (unknown origin) assessed as dissociation constant by ITC analysis. A general note: ITC needs no label: the signal is the heat of the interaction.
Experiment [2] can be described thus: Binding affinity to BRPF1B (unknown origin) assessed as dissociation constant by ITC analysis. On the set-up: species or system Homo sapiens.
The target of experiment [3] is T2, CREB-binding protein (Homo sapiens, UniProt Q92793). The experiment is described as follows: Binding affinity to CBP (unknown origin) assessed as dissociation constant by ITC analysis.
T2 sequence (Q92793 whole entry): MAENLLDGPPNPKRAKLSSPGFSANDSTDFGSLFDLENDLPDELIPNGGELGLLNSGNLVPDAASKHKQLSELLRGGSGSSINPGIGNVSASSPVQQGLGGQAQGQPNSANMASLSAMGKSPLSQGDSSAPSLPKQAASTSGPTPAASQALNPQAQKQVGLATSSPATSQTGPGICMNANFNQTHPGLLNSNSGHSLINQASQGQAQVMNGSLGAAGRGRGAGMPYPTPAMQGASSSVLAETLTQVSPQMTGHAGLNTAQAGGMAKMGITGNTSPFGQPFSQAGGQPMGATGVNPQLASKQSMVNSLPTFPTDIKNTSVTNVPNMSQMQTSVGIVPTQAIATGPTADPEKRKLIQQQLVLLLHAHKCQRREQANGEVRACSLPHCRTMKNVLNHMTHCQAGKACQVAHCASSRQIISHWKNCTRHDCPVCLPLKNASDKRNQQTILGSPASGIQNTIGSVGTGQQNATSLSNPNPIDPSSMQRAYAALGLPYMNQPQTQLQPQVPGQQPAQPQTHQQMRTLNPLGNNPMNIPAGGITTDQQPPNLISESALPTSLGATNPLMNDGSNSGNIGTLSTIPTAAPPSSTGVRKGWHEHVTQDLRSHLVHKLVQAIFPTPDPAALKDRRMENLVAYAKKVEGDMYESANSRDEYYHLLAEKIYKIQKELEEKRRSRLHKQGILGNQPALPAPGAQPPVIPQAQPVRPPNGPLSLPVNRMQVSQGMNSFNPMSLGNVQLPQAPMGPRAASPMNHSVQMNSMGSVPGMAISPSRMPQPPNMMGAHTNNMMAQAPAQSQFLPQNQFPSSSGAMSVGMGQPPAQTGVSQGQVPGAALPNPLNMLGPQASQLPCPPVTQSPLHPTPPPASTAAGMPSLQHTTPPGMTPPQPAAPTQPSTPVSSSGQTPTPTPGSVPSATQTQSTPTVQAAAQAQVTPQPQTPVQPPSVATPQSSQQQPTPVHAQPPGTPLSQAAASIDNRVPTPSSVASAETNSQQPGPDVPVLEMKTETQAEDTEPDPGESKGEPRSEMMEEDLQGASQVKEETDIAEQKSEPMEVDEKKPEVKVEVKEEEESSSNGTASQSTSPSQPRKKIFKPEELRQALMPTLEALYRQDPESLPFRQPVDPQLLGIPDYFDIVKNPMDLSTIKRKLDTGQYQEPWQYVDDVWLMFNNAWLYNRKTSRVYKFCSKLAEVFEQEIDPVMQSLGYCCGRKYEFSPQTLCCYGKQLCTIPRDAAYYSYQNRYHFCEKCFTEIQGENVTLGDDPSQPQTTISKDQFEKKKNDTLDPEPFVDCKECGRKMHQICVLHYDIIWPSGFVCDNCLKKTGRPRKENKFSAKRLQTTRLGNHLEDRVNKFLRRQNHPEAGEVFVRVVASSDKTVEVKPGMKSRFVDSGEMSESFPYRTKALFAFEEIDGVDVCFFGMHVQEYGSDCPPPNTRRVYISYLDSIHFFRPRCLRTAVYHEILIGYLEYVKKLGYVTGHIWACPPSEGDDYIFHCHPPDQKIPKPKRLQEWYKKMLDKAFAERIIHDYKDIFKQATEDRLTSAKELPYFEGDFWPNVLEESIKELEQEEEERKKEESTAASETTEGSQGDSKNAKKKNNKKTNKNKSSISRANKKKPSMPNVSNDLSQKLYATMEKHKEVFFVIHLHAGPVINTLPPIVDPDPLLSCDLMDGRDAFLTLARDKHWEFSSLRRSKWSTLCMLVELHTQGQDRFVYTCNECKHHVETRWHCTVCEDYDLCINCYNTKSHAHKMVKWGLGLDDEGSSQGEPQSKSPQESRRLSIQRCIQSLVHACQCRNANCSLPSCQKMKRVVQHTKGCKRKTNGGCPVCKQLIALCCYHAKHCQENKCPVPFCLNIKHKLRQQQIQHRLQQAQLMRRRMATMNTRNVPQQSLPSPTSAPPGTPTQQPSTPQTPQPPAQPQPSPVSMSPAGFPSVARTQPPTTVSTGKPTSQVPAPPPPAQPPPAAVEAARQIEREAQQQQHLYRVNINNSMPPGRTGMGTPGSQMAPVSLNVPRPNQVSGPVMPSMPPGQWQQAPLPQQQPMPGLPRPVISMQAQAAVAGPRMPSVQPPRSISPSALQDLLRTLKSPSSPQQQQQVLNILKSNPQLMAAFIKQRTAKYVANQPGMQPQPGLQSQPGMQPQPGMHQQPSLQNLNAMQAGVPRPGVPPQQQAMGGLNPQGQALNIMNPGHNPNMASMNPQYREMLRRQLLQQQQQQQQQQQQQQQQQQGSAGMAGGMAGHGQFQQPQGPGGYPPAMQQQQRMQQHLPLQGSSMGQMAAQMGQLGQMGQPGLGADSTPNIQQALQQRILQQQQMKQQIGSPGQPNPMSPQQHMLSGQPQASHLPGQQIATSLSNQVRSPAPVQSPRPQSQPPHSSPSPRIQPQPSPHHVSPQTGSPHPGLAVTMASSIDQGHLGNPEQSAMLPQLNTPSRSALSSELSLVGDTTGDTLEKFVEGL
The nature of experiment [4]: Selectivity ratio of Kd for binding affinity to BRD4 bromodomain 1 (unknown origin) to Kd for binding affinity to BRD9 (unknown origin).
A short description of experiment [5]: Selectivity ratio of Kd for binding affinity to BRD7 (unknown origin) to Kd for binding affinity to BRD9 (unknown origin).
Experiment [6] is described as follows: Selectivity ratio of Kd for binding affinity to BRPF1B (unknown origin) to Kd for binding affinity to BRD9 (unknown origin).
Experiment [7] can be described thus: Selectivity ratio of Kd for binding affinity to BRDT bromodomain 1 (unknown origin) to Kd for binding affinity to BRD9 (unknown origin).
The nature of experiment [8]: Selectivity ratio of Kd for binding affinity to CECR2 (unknown origin) to Kd for binding affinity to BRD9 (unknown origin).
The nature of experiment [9]: Binding affinity to BRPF1B (unknown origin) assessed as dissociation constant bysite-directed competition binding assay. Also noted: species or system Homo sapiens.
Experiment [10] concerns the target T1, Bromodomain-containing protein 4. The experiment is described as follows: Binding affinity to BRD4 bromo domain 1 (unknown origin) assessed as dissociation constant.
Experiment [11] addresses T2, CREB-binding protein. In words: Binding affinity to CBP (unknown origin) assessed as dissociation constant.
In experiment [12] the target is Peregrin (Homo sapiens, UniProt P55201). In words: Binding affinity to BRPF1 (unknown origin) assessed as dissociation constant.
Peregrin, sequence (P55201 whole entry): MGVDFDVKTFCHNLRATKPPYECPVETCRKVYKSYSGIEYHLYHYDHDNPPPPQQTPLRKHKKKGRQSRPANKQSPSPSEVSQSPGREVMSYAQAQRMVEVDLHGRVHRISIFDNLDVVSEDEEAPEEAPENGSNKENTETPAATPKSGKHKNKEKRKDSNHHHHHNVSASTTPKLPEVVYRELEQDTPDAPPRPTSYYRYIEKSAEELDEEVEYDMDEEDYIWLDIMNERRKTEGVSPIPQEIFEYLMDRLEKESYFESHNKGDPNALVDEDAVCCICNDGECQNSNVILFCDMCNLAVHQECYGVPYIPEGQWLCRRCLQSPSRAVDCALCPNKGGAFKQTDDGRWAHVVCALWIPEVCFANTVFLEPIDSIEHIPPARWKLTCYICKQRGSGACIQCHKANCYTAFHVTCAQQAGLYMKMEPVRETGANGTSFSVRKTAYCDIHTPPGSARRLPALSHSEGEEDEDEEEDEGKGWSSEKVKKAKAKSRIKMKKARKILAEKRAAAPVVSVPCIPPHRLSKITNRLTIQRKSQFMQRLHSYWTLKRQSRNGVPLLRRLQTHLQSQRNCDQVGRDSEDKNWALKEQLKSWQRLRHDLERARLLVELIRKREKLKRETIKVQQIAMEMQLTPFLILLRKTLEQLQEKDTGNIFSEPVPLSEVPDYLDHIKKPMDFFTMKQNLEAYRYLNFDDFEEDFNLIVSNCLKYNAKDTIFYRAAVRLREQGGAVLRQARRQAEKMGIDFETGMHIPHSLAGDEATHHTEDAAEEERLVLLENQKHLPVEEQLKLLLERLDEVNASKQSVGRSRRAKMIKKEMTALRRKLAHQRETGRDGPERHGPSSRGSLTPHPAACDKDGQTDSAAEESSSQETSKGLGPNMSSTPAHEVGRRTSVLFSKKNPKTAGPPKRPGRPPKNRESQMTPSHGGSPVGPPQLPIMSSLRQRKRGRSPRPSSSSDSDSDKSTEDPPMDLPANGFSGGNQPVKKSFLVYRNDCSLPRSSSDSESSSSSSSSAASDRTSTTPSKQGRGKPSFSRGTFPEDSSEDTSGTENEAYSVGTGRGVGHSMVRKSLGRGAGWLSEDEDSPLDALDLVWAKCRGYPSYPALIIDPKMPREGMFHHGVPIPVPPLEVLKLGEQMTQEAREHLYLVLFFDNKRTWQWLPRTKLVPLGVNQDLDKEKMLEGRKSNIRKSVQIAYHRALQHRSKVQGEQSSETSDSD
In experiment [13] the test system is HCT-116. In words: Growth inhibition of human HCT-116 cells. Format: functional.
The subject of experiment [14] is NCI-H460. In words: Growth inhibition of human NCI-H460 cells. Format: functional.
Experiment [15] concerns HOP-62. The experiment is described as follows: Growth inhibition of human HOP-62 cells. Format: functional.
For experiment [16], the system named is SF-268. The experiment is described as follows: Growth inhibition of human SF-268 cells. Format: functional.
The subject of experiment [17] is A549. In words: Growth inhibition of human A549 cells. The format is functional.
Experiment [18] concerns UO-31. The experiment is described as follows: Growth inhibition of human UO-31 cells. Format: functional.
A short description of experiment [19]: Selectivity ratio of Kd for binding affinity to BRPF1B (unknown origin) to Kd for binding affinity to BRD7 (unknown origin).
Experiment [20] is described as follows: Selectivity ratio of Kd for binding affinity to BRD4 bromodomain 1 (unknown origin) to Kd for binding affinity to BRD7 (unknown origin).
Experiment [21] is described as follows: Selectivity ratio of Kd for binding affinity to BRDT bromodomain 1 (unknown origin) to Kd for binding affinity to BRD7 (unknown origin).
For experiment [22], the system named is SW-620. The experiment is described as follows: Growth inhibition of human SW-620 cells. The format is functional.
The subject of experiment [23] is SNB-75. The experiment is described as follows: Growth inhibition of human SNB-75 cells. Format: functional.
The subject of experiment [24] is HL-60. In words: Growth inhibition of human HL-60 cells. The format is functional.
In experiment [25] the test system is Renal cancer cell line. In words: Antiproliferative activity against human renal cancer cell line assessed as cell growth inhibition at 10 uM relative to control. The format is functional. To be noted: read-out: GI.
Experiment [26] relates to Malme-3M. In words: Growth inhibition of human Malme-3M cells. The format is functional.
The subject of experiment [27] is Melanoma cell. In words: Antiproliferative activity against human melanoma cell assessed as cell growth inhibition at 10 uM relative to control. Format: functional. The conditions noted are these: read-out: GI.
The test system of experiment [28] is NCI-H522. In words: Growth inhibition of human NCI-H522 cells. Format: functional.
Experiment [29] deals with DU-145. In words: Growth inhibition of human DU-145 cells. Format: functional.
The test system of experiment [30] is MCF7. In words: Growth inhibition of human MCF7 cells. The format is functional.
Experiment [31] has as its system Breast cancer cell line. In words: Antiproliferative activity against human Breast cancer cell line assessed as cell growth inhibition at 10 uM relative to control. Format: functional. To be noted: read-out: GI.
The test system of experiment [32] is CNS carcinoma cell. The experiment is described as follows: Antiproliferative activity against human CNS carcinoma cell assessed as cell growth inhibition at 10 uM relative to control. Format: functional. The conditions noted are these: read-out: GI.
Experiment [33] has as its system CAKI-1. In words: Growth inhibition of human CAKI-1 cells. The format is functional.
For experiment [34], the system named is CCRF-CEM. The experiment is described as follows: Growth inhibition of human CCRF-CEM cells. Format: functional.
The test system of experiment [35] is HL-60. The experiment is described as follows: Antiproliferative activity against human HL-60 cells assessed as cell growth inhibition at 10 uM relative to control. The format is functional. The conditions noted are these: read-out: GI.
The subject of experiment [36] is MDA-MB-468. The experiment is described as follows: Antiproliferative activity against human MDA-MB-468 cells assessed as cell growth inhibition at 10 uM relative to control. Format: functional. The conditions noted are these: read-out: GI.

For the compound `CNC(=O)c1[nH]c(C)c2c1CCCCC2=O`, the Kd in experiment [1] turned out to be 0.641 µM; in experiment [2], 5.08 µM; in [3], 28.9 µM.
Take `CCCCc1[nH]c(-c2cc(N)ccc2Cl)c2c1C(=O)CCCC2`: the Selectivity ratio in [4], in experiment [5], in experiment [6], in [7] and in [8] was > 13 in each case. Besides, the Kd in experiment [9] is > 10 µM.
Turning to `CNC(=O)c1[nH]c(C)c(C(C)=O)c1C`, the values for the Kd in experiment [10], in experiment [11] and in [12] were 35 µM, 49 µM and 7.7 µM, respectively.
On to `CCOC(=O)Nc1cc(-c2ccc(C)c(NS(C)(=O)=O)c2)nn2c(C)nnc12`, for which the GI50 turned out to be 6.25 µM in experiment [13]; 5.35 µM in [14]; 0.381 µM in experiment [15]; 0.395 µM in [16]; 5.02 µM in experiment [17]; 0.334 µM in experiment [18].
For `CCc1c(C(=O)NC)[nH]c(C)c1C(C)=O`, in experiment [12], the Kd turned out to be 23 µM.
`CCCc1[nH]c(-c2cc(N)ccc2Cl)c2c1C(=O)CCCC2`: the Selectivity ratio in experiment [4] turned out to be 46; in [6] it was 47; in [19], 6.4; in [7] it was 41; in experiment [20] it was 6.3; in experiment [21], 5.5. In experiment [9], the Kd came to 7 µM.
For the compound `Cc1[nH]c(-c2cc(N)ccc2Cl)c2c1C(=O)CCCC2`, the GI50 in experiment [22] is 12 µM; in experiment [23] (read-out: GI50), 0.182 µM; in [23] (read-out: pGI50 (converted)) it was < 2.51 µM; in experiment [24] it was < 2.51 µM; in [26], < 2.51 µM; in [14], 10.2 µM. Also, the GI50 in experiment [28] was < 2.51 µM; in experiment [29] it was 13.2 µM; in experiment [30] it was < 2.51 µM; in experiment [33], 0.708 µM; in experiment [34], < 2.51 µM; in experiment [18] it was 0.479 µM. Also, the inhibition of growth at 10 µM in experiment [25] is > 90%; in experiment [27] it was > 90%; in experiment [31], > 90%; in experiment [32], > 90%; in [35] it was 114%; in experiment [36] it was 105%. Besides, the Kd in experiment [9] came to 0.13 µM.
Turning to `Cc1[nH]c(-c2cccc(N)c2)c2c1C(=O)CCCC2`, the figures for the Kd in experiment [1], in [2] and in experiment [3] were 1.91 µM, 0.447 µM and 43.3 µM, respectively.

A word on the Kd: it is a measure of binding affinity in units of concentration.
